Activity calls are given as the source filed them. No cut-off for these calls is given here.
How the values were obtained:
[1] = target: 3',5'-cyclic-AMP phosphodiesterase 4D (Homo sapiens, UniProt Q08499); test: Inhibition of PDE4D2 (86-413) (unknown origin) expressed in Escherichia coli BL21 assessed as using [3H]-cAMP as substrate measured for 15 mins by liquid scintillation counting analysis
[2] = Toxicity in dog assessed as emesis at 1 mg/kg, po; type: organism-based, Canis lupus familiaris; conditions: in vivo
[3] = test system: Rattus norvegicus; test: Anti-idiopathic pulmonary fibrotic activity in bleomycin-induced Sprague-Dawley rat model assessed as decrease in fibronectin expression of lungs at 150 mg/kg, po treated for 28 consecutive days by Western blot analysis; type: functional, organism-based
[4] = test system: Rattus norvegicus; test: Anti-idiopathic pulmonary fibrotic activity in bleomycin-induced Sprague-Dawley rat model assessed as inhibition of collagen deposition around trachea and cell hyperplasia at 150 mg/kg, po treated for 28 consecutive days by Hematoxylin and eosin staining based assay relative to control; type: functional
[5] = test system: Rattus norvegicus; test: Anti-inflammatory activity in bleomycin-induced idiopathic pulmonary fibrotic activity Sprague-Dawley rat model assessed as decrease in NO production in lungs at 150 mg/kg, po treated for 28 consecutive days; type: functional, organism-based
[6] = test system: Rattus norvegicus; test: Anti-idiopathic pulmonary fibrotic activity in bleomycin-induced Sprague-Dawley rat model assessed as decrease in alpha-smooth muscle actin protein expression of lungs at 150 mg/kg, po treated for 28 consecutive days by Western blot analysis; type: functional, organism-based
[7] = test system: Rattus norvegicus; test: Anti-idiopathic pulmonary fibrotic activity in bleomycin-induced Sprague-Dawley rat model assessed as prevention of structural damage of lungs at 150 mg/kg, po treated for 28 consecutive days by Hematoxylin and eosin staining based assay relative to control; type: functional, organism-based

Sequence of 3',5'-cyclic-AMP phosphodiesterase 4D (Q08499 whole entry): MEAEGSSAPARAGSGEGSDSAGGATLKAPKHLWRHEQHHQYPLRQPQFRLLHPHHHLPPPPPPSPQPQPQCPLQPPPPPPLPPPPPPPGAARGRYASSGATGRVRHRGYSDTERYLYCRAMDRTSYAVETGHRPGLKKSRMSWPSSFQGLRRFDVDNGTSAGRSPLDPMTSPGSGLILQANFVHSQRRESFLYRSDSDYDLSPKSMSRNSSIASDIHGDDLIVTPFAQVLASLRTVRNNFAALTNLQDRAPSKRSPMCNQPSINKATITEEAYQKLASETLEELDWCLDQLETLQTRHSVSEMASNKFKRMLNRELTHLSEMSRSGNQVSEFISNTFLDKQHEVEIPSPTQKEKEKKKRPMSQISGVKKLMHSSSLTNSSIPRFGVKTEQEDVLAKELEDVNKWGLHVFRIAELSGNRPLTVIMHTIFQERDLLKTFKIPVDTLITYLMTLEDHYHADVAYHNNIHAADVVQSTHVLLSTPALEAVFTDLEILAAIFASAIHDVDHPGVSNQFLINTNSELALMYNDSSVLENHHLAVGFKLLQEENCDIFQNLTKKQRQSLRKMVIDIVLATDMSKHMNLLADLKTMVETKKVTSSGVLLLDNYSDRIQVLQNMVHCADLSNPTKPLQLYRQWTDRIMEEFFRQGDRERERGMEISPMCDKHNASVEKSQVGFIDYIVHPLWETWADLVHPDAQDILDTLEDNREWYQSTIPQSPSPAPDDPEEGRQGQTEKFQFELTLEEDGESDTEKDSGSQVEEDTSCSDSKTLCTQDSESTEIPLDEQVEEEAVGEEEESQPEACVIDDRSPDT

| Structure (SMILES) | IC50 [1] [nM] | further results |
| --- | --- | --- |
| COc1c(OCCCCCCC(=O)O)cc2oc3cc4c(c(O)c3c(=O)c2c1CC=C(C)C)C=CC(C)(C)O4 | 19 | – |
| COc1ccc(C2CNC(=O)C2)cc1OC1CCCC1 (stereo not given) [ROLIPRAM] | – | Activity [2]: Toxic |
| COc1c(OCc2ccc(S(C)(=O)=O)cc2)cc2oc3cc4c(c(OC/C=C/C(=O)O)c3c(=O)c2c1CC=C(C)C)C=CC(C)(C)O4 | 18 | – |
| COc1c(O)cc2oc3cc4c(c(OCCCCCC(=O)O)c3c(=O)c2c1CC=C(C)C)C=CC(C)(C)O4 | 25 | – |
| COc1cc2oc3cc4c(c(OC/C=C/C(=O)O)c3c(=O)c2c(CC=C(C)C)c1OC)C=CC(C)(C)O4 | 30 | – |
| COc1c(OCc2ccc(F)cc2)cc2oc3cc4c(c(OC/C=C\C(=O)O)c3c(=O)c2c1CC=C(C)C)C=CC(C)(C)O4 | 20 | – |
| COc1c(O)cc2oc3cc4c(c(OCCCCC(=O)O)c3c(=O)c2c1CC=C(C)C)C=CC(C)(C)O4 | 24 | – |
| COc1c(OCc2ccccc2)cc2oc3cc4c(c(OC/C=C/C(=O)O)c3c(=O)c2c1CC=C(C)C)C=CC(C)(C)O4 | 24 | – |
| COc1c(O)cc2oc3cc4c(c(OCCCC(=O)O)c3c(=O)c2c1CC=C(C)C)C=CC(C)(C)O4 | > 1000 | – |
| CCOC(=O)/C=C/COc1c2c(cc3oc4cc(OCc5cccc(F)c5)c(OC)c(CC=C(C)C)c4c(=O)c13)OC(C)(C)C=C2 | 6.5 | – |
| COc1c(OCc2ccc(F)cc2)cc2oc3cc4c(c(OCCCC(=O)O)c3c(=O)c2c1CC=C(C)C)C=CC(C)(C)O4 | 4.2 | – |
| COc1c(OCc2cccc(C)c2)cc2oc3cc4c(c(OC/C=C/C(=O)O)c3c(=O)c2c1CC=C(C)C)C=CC(C)(C)O4 | > 1000 | – |
| COc1c(O)cc2oc3cc4c(c(OCCCCCCC(=O)O)c3c(=O)c2c1CC=C(C)C)C=CC(C)(C)O4 | 300 | – |
| COc1c(OC(C)C)cc2oc3cc4c(c(OC/C=C/C(=O)O)c3c(=O)c2c1CC=C(C)C)C=CC(C)(C)O4 | 31 | – |
| Cc1ccc(=O)n(-c2ccccc2)c1 [PIRFENIDONE] | – | Activity [3]: Active; inhibition in vivo at 150 mg/kg [4]: 100%; Activity [5]: Active; Activity [6]: Active; Activity [7]: Active |
| COc1c(O)cc2oc3cc4c(c(OC/C=C/C(=O)O)c3c(=O)c2c1CC=C(C)C)C=CC(C)(C)O4 | 494 | – |
| CCOc1cc2oc3cc4c(c(OC/C=C/C(=O)O)c3c(=O)c2c(CC=C(C)C)c1OC)C=CC(C)(C)O4 | 48 | – |
| COc1c(OCc2cccc(F)c2)cc2oc3cc4c(c(OC/C=C/C(=O)O)c3c(=O)c2c1CC=C(C)C)C=CC(C)(C)O4 | > 1000 | – |
| COc1cccc(COc2cc3oc4cc5c(c(OC/C=C/C(=O)O)c4c(=O)c3c(CC=C(C)C)c2OC)C=CC(C)(C)O5)c1 | 16 | – |
| COc1c(O)cc2oc3cc4c(c(OCC(=O)O)c3c(=O)c2c1CC=C(C)C)C=CC(C)(C)O4 | 17 | – |
| CCOC(=O)/C=C/COc1c2c(cc3oc4cc(OCc5ccc(F)cc5)c(OC)c(CC=C(C)C)c4c(=O)c13)OC(C)(C)C=C2 | 24 | – |
